From patent US10052330B2, “Substituted pyrido[3,4-b]pyrazines as Syk inhibitors” (HUTCHISON MEDIPHARMA LIMITED, priority 2011, dated 2018)
Like-named read-outs stand apart in the source and are kept apart here.

How the values were obtained:
[1] = target: Syk kinase (Homo sapiens, UniProt P43405); experiment: Syk kinase enzymatic assay (Kit-Tyr 2 Peptide); format: biochemical; details: 8 concentrations, 1 μM down to 0.0003 μM; upper bound of each range is 'less than'; read-out: IC50: Enzymatic Activity (Syk kinase)
[2] = system: RBL-2H3 cells; experiment: IgE-induced Beta-hexosaminidase secretion in RBL-2H3 cells; format: cell-based; details: Rattus norvegicus
[3] = RBL-2H3, RBL-2H3 cells sensitized with SPE-7, stimulated with DNP-BSA, upper bound of each range is 'less than', read-out: IC50, IgE-induced Beta-hexosaminidase secretion

Compound	IC50 [1]	IC50 [2, 3]	IC50 ([2]; RBL-2H3, read-out: IC50, IgE-induced Beta-hexosaminidase secretion)
CC1CN(c2ccc(-c3cc4nccnc4c(NC[C@@H]4CNCCO4)n3)cc2F)CCO1 (mixture of isomers) [Compound 250]	0.1 to 1 µM	0.001 to 0.1 µM	
CC1CN(c2ccc(-c3cc4nccnc4c(NCC4CNCCC4(F)F)n3)cc2)CCO1 (single isomer, unassigned) [Compound 308]	0.001 to 0.1 µM	0.001 to 0.1 µM	
FC1(CNc2nc(-c3ccc(N4CCOCC4)cc3)cc3nccnc23)CCCNC1 (single isomer, unassigned) [Compound 377]	0.001 to 0.1 µM	0.001 to 0.1 µM	
Fc1cc(-c2cc3nccnc3c(NCC3(F)CCCNC3)n2)ccc1N1CCOCC1 (single isomer, unassigned) [Compound 382]	0.001 to 0.1 µM	0.001 to 0.1 µM	
C[C@H]1CN(c2ccc(-c3cc4nccnc4c(NCC4CNCCC4(F)F)n3)cc2)CCO1 (single isomer, unassigned) [Compound 396]	0.001 to 0.1 µM	0.001 to 0.1 µM	
CN1CCN(c2ccc(-c3cc4nccnc4c(NCC4CN(S(C)(=O)=O)CCO4)n3)cc2)CC1 (stereo in doubt) [Compound 486, (S)-7-(4-(4-methylpiperazin-1-yl)phenyl)-N-((4-(methylsulfonyl)morpholin-2-yl)methyl)pyrido[4,3-b]pyrazin-5-amine]	0.001 to 0.1 µM	0.001 to 0.1 µM	
CN(CCCN)c1nc(-c2ccc(N3CCOCC3)cc2)cc2nccnc12 [Compound 4]	0.1 to 1 µM	0.1 to 1 µM	
CN(C)c1cccc(-c2cc3nccnc3c(NCC3CCCNC3)n2)c1 (centres unmarked) [Compound 13]	0.1 to 1 µM	0.1 to 1 µM	
COc1cc(OC)cc(-c2cc3nccnc3c(NCC3CCCNC3)n2)c1 (centres unmarked) [Compound 15]	0.1 to 1 µM	0.1 to 1 µM	
COc1cccc(-c2cc3nccnc3c(NCC3CCCNC3)n2)c1 (centres unmarked) [Compound 17]	0.1 to 1 µM	0.1 to 1 µM	
Cn1cc(-c2cc3nccnc3c(NCC3CCCNC3)n2)cn1 (centres unmarked) [Compound 18]	0.1 to 1 µM		0.1 to 1 µM
COc1ccc(-c2cc3nccnc3c(NCC3CCCNC3)n2)cc1F (centres unmarked) [Compound 19]	0.001 to 0.1 µM	0.001 to 0.1 µM	
CN(C)c1ccc(-c2cc3nccnc3c(NC[C@H]3CCCNC3)n2)cc1 [Compound 21]	0.001 to 0.1 µM	0.001 to 0.1 µM	
Cc1ccc(-c2cc3nccnc3c(NCC3CCCNC3)n2)cc1 (centres unmarked) [Compound 22]	0.001 to 0.1 µM	0.001 to 0.1 µM	
Fc1ccc(-c2cc3nccnc3c(NCC3CCCNC3)n2)cc1 (centres unmarked) [Compound 23]	0.1 to 1 µM	0.1 to 1 µM	
Clc1cccc(-c2cc3nccnc3c(NCC3CCCNC3)n2)c1 (centres unmarked) [Compound 24]	0.1 to 1 µM	0.1 to 1 µM	
c1cnc2c(NCC3CCCNC3)nc(-c3cn[nH]c3)cc2n1 (centres unmarked) [Compound 25]	0.1 to 1 µM	0.1 to 1 µM	
COc1ccc(-c2cc3nccnc3c(NCC3CCCNC3)n2)cc1OC (centres unmarked) [Compound 26]	0.001 to 0.1 µM	0.1 to 1 µM	
NC1CCN(c2nc(-c3ccc(N4CCOCC4)cc3)cc3nccnc23)C1 (centres unmarked) [Compound 28]	0.1 to 1 µM	0.1 to 1 µM	
COc1ccc(-c2cc3nccnc3c(NC[C@H]3CCCNC3)n2)cc1OC [Compound 33]	0.001 to 0.1 µM	0.1 to 1 µM	
c1cnc2c(NCC3CCNCC3)nc(-c3ccc(N4CCOCC4)cc3)cc2n1 [Compound 37]	0.1 to 1 µM	0.1 to 1 µM	

Compound	IC50 [1]	IC50 [2, 3]	IC50 ([2]; RBL-2H3, read-out: IC50, IgE-induced Beta-hexosaminidase secretion)
c1cnc2c(N[C@@H]3CCNC3)nc(-c3ccc(N4CCOCC4)cc3)cc2n1 [Compound 39]	0.1 to 1 µM	0.1 to 1 µM	
Cc1ccc(-c2cc3nccnc3c(NC[C@H]3CCCNC3)n2)cc1 [Compound 40]	0.001 to 0.1 µM	0.1 to 1 µM	
Cc1ccc(-c2cc3nccnc3c(NC[C@H]3CCCNC3)n2)cc1F [Compound 41]	0.001 to 0.1 µM	0.1 to 1 µM	
CC(C)COc1ccc(-c2cc3nccnc3c(NCC3CCCNC3)n2)cc1 (centres unmarked) [Compound 42]	0.001 to 0.1 µM	0.1 to 1 µM	
CCc1ccc(-c2cc3nccnc3c(NCC3CCCNC3)n2)cc1 (centres unmarked) [Compound 45]	0.1 to 1 µM	0.1 to 1 µM	
CC(C)c1ccc(-c2cc3nccnc3c(NCC3CCCNC3)n2)cc1 (centres unmarked) [Compound 46]	0.001 to 0.1 µM	0.1 to 1 µM	
CC(C)(C)c1ccc(-c2cc3nccnc3c(NCC3CCCNC3)n2)cc1 (centres unmarked) [Compound 47]	0.001 to 0.1 µM	0.1 to 1 µM	
CC(C)Oc1ccc(-c2cc3nccnc3c(NCC3CCCNC3)n2)cc1F (centres unmarked) [Compound 52]	0.001 to 0.1 µM	0.1 to 1 µM	
FC(F)(F)Oc1ccc(-c2cc3nccnc3c(NCC3CCCNC3)n2)cc1 (centres unmarked) [Compound 54]	0.001 to 0.1 µM	0.1 to 1 µM	
Clc1ccc(-c2cc3nccnc3c(NCC3CCCNC3)n2)cc1 (centres unmarked) [Compound 55]	0.001 to 0.1 µM	0.1 to 1 µM	
CNc1ccc(-c2cc3nccnc3c(NCC3CCCNC3)n2)cn1 (centres unmarked) [Compound 60]	0.001 to 0.1 µM	0.1 to 1 µM	
FC(F)(F)c1ccc(-c2cc3nccnc3c(NCC3CCCNC3)n2)cc1 (centres unmarked) [Compound 63]	0.001 to 0.1 µM	0.1 to 1 µM	
Oc1ccc(-c2cc3nccnc3c(NC[C@H]3CCCNC3)n2)cc1F [Compound 67]	0.001 to 0.1 µM	0.1 to 1 µM	
CC(C)(O)[C@@H]1CCN(c2nc(-c3ccc(N4CCOCC4)cc3)cc3nccnc23)C1 [Compound 170]		0.1 to 1 µM	
OCC1(CNc2nc(-c3ccc(N4CCOCC4)cc3)cc3nccnc23)COC1 [Compound 171]		0.1 to 1 µM	
N#CCCNc1nc(-c2ccc(N3CCOCC3)cc2)cc2nccnc12 [Compound 187]		0.1 to 1 µM	
FC(F)CNc1nc(-c2ccc(N3CCOCC3)cc2)cc2nccnc12 [Compound 197]		0.1 to 1 µM	
FC(F)(F)C1CCC(CNc2nc(-c3ccc(N4CCOCC4)cc3)cc3nccnc23)CN1 (centres unmarked) [Compound 199]		0.1 to 1 µM	
Fc1cc(-c2cc3nccnc3c(NC[C@H]3CNCCC3(F)F)n2)ccc1N1CCOCC1 [Compound 369, (R)—N-((4,4-difluoropiperidin-3-yl)methyl)-7-(3-fluoro-4-morpholinophenyl)pyrido[4,3-b]pyrazin-5-amine]	0.1 to 1 µM		
FC1(F)CCNC[C@@H]1CNc1nc(-c2ccc(N3CCOCC3)nc2)cc2nccnc12 [Compound 375, (R)—N-((4,4-difluoropiperidin-3-yl)methyl)-7-(6-morpholinopyridin-3-yl)pyrido[4,3-b]pyrazin-5-amine]	0.1 to 1 µM		
F[C@]1(CNc2nc(-c3ccc(N4CCOCC4)nc3)cc3nccnc23)CCCNC1 [Compound 379, (R)—N-((3-fluoropiperidin-3-yl)methyl)-7-(6-morpholinopyridin-3-yl)pyrido[4,3-b]pyrazin-5-amine]	0.1 to 1 µM		

Compound	IC50 [1]	IC50 [2, 3]	IC50 ([2]; RBL-2H3, read-out: IC50, IgE-induced Beta-hexosaminidase secretion)
CS(=O)(=O)c1ccc(-c2cc3nccnc3c(NC[C@H]3CNCCC3(F)F)n2)cc1 [Compound 391, (R)—N-((4,4-difluoropiperidin-3-yl)methyl)-7-(4-(methylsulfonyl)phenyl)pyrido[4,3-b]pyrazin-5-amine]	0.1 to 1 µM		
NC(=O)CCC(=O)N1CCN(c2ccc(-c3cc4nccnc4c(NCC4CNCCO4)n3)cc2)CC1 (centres unmarked) [Compound 422]	0.001 to 0.1 µM		
CS(=O)(=O)N1CCC(n2cc(-c3cc4nccnc4c(NC[C@@H]4CNCCO4)n3)cn2)CC1 [Compound 431]	0.001 to 0.1 µM		
O=C(C(F)F)N1CCO[C@H](CNc2nc(-c3ccc(N4CCOCC4)c(Cl)c3)cc3nccnc23)C1 [Compound 452]	0.1 to 1 µM		
CNc1ccc(-c2cc3nccnc3c(NC[C@@H]3CN(C(=O)C(F)F)CCO3)n2)cc1 [Compound 453]	0.1 to 1 µM		
COc1ccc(-c2cc3nccnc3c(NC[C@@H]3CN(C(=O)C(F)F)CCO3)n2)cc1OC [Compound 454]	0.1 to 1 µM		
CNc1ccc(-c2cc3nccnc3c(NC[C@@H]3CN(C(=O)C(F)F)CCO3)n2)cc1F [Compound 457]	0.1 to 1 µM		
CS(=O)(=O)N1CCO[C@H](CNc2nc(-c3ccc(C4CCNCC4)cc3)cc3nccnc23)C1 [Compound 459]	0.001 to 0.1 µM		
CNC(=O)COc1ccc(-c2cc3nccnc3c(NC[C@@H]3CN(C(=O)C(F)F)CCO3)n2)cc1 [Compound 461]	0.1 to 1 µM		
CCN(CC)c1ccc(-c2cc3nccnc3c(NC[C@@H]3CN(C(=O)C(F)F)CCO3)n2)cc1 [Compound 471]	0.1 to 1 µM		
CN(CCO)c1ccc(-c2cc3nccnc3c(NC[C@@H]3CNCCO3)n2)cc1 [Compound 472, (S)-2-(methyl(4-(5-(morpholin-2-ylmethylamino)pyrido[4,3-b]pyrazin-7-yl)phenyl)amino)ethanol]	0.1 to 1 µM		
CS(=O)(=O)CCOc1ccc(-c2cc3nccnc3c(NC[C@@H]3CNCCO3)n2)cc1 [Compound 478, (S)-7-(4-(2-(methylsulfonyl)ethoxy)phenyl)-N-(morpholin-2-ylmethyl)pyrido[4,3-b]pyrazin-5-amine]	0.1 to 1 µM		
CC[N+]1(CC)CCC(c2ccc(-c3cc4nccnc4c(NC[C@@H]4CN(C(=O)C(F)F)CCO4)n3)cc2)CC1 [Compound 480, (R)-4-(4-(5-((4-(2,2-difluoroacetyl)morpholin-2-yl)methylamino)pyrido[4,3-b]pyrazin-7-yl)phenyl)-1,1-diethylpiperidinium iodide]	0.001 to 0.1 µM		
O=S1(=O)CCNCC1CNc1nc(-c2ccc(N3CCOCC3)c(F)c2)cc2nccnc12 (centres unmarked) [Compound 483]	0.1 to 1 µM		
CN1CCN(c2ccc(-c3cc4nccnc4c(NCC4CNCCS4(=O)=O)n3)cc2)CC1 (centres unmarked) [Compound 484]	0.1 to 1 µM		
CC(=O)N1CCN(c2ccc(-c3cc4nccnc4c(NC[C@@H]4CN(S(C)(=O)=O)CCO4)n3)cc2)CC1 [Compound 491]	0.1 to 1 µM		
CS(=O)(=O)N1CCN(c2ccc(-c3cc4nccnc4c(NC[C@@H]4CN(S(C)(=O)=O)CCO4)n3)cc2)CC1 [Compound 492]	0.1 to 1 µM		
CS(=O)(=O)N1CCC(c2ccc(-c3cc4nccnc4c(NC[C@@H]4CN(O)CCO4)n3)cc2)CC1 [Compound 496, (R)-2-((7-(4-(1-(methylsulfonyl)piperidin-4-yl)phenyl)pyrido[4,3-b]pyrazin-5-ylamino)methyl)morpholin-4-ol]	0.1 to 1 µM		
CS(=O)(=O)N1CCC(c2ccc(-c3cc4nccnc4c(NCC(O)CN)n3)cc2)CC1 (centres unmarked) [Compound 509]	0.1 to 1 µM		
